Experimental data as given in patent US7939534B2, “Certain chemical entities, compositions, and methods” (Cytokinetics, Inc., priority 2006, dated 2011).

Each molecule was assayed against T1, chicken gizzard smooth muscle myosin subfragment-1 chemically crosslinked to either cardiac or skeletal actin (Gallus gallus, UniProt P10587) (assay: Dose dependent smooth muscle myosin ATPase modulation (pyruvate kinase/horseradish peroxidase/pyruvate oxidase-coupled ATPase assay)). Conditions: read-out: IC50 Arithmetic Mean.
T1 construct: chicken gizzard smooth muscle myosin subfragment-1; from tissue; host or cells: chicken gizzard
Format: biochemical
Procedure: In Vitro Model of Dose Dependent Smooth Muscle Myosin Atpase Modulation
Screening assays were performed using a pyruvate kinase and lactate dehydrogenase-coupled ATPase assay containing the following reagents: Potassium PIPES (50 mM ), MgCl2 (3 mM ), KCl (100 mM ), ATP (0.15 mM ), DTT (1 mM ), BSA (0.1 mg/ml), NADH (0.5 mM ), PEP (1.5 mM ), pyruvate kinase (4 U/ml), lactate dehydrogenase (8 U/ml), and antifoam (50 ppm) (concentrations expressed are final assay concentrations). The pH was adjusted to 6.80 at 22° C. by addition of potassium hydroxide. Lead optimization assays were performed with a more sensitive pyruvate kinase/horseradish peroxidase/pyruvate oxidase-coupled ATPase assay containing the following reagents: Potassium PIPES (12 mM ), MgCl2 (2 mM ), KCl (100 mM ), ATP (0.15 mM ), BSA (0.05 mg/ml), potassium phosphate (2 mM ), amplex red (0.1 mM ), PEP (0.1 mM ), pyruvate kinase (4 U/ml), horseradish peroxidase (0.5 U/ml), pyruvate oxidase (0.5 U/ml), and antifoam (50 ppm) (concentrations expressed are final assay concentrations). The pH was adjusted to 7.00 at 22° C. by addition of potassium hydroxide.
The protein components specific to this assay are chicken gizzard smooth muscle myosin subfragment-1 that has been chemically crosslinked to either cardiac or skeletal actin using an excess of 1-Ethyl-3-[3-dimethylaminopropyl]carbodiimide hydrochloride and N-hydroxysuccinimide. The exact concentration of the crosslinked smooth muscle myosin in the assay is determined empirically, by titration to achieve a desired rate of ATP hydrolysis. The concentration varies between protein preparations due to variations in the fraction of active molecules in each preparation.
Compound dose response assays are performed by first preparing a dilution series of test compound, each with an assay mixture containing potassium PIPES, MgCl2, KCl, ATP, BSA, potassium phosphate, amplex red, PEP, crosslinked smooth muscle actomyosin (subfragment-1), antifoam, and water. The assay is started by adding an equal volume of solution containing potassium Pipes, MgCl2, KCl, BSA, potassium phosphate, pyruvate kinase, horseradish peroxidase, pyruvate oxidase, antifoam, and water. ATP hydrolysis is monitored by measuring the fluorescence of amplex red (excitation at 480 nm, emission at 615 nm). The resulting dose response curve is fit by the 4 parameter equation y=Bottom+((Top−Bottom)/(1+((IC50/X)^Hill))). The IC50 is defined as the concentration at which ATPase activity is midway between the top and bottom of the dose response curve.

Row | IC50 [nM] | SMILES
1 | 430 | CC(=O)N1CC=C(c2ccc(C(=O)NCc3cccnc3)c(NCCc3cccc(F)c3)n2)CC1 [Compound 56, (6-(1-acetyl(4-1,2,5,6-tetrahydropyridyl))-2-{[2-(3-fluorophenyl)ethyl]amino}(3-pyridyl))-N-(3-pyridylmethyl)carboxamide]
2 | 10500 | O=C(NCc1cccnc1)c1ccc(C2=CCNCC2)nc1NCCc1cccc(F)c1 [Compound 57, (2-{[2-(3-fluorophenyl)ethyl]amino}-6-(4-1,2,5,6-tetrahydropyridyl)(3-pyridyl))-N-(3-pyridylmethyl)carboxamide]
3 | 2150 | CC(C)(C)OC(=O)N1CC=C(c2ccc(C(=O)NCc3cccnc3)c(NCCc3cccc(F)c3)n2)CC1 [Compound 58, tert-butyl 4-(6-{[2-(3-fluorophenyl)ethyl]amino}-5-[N-(3-pyridylmethyl)carbamoyl]-2-pyridyl)-1,2,5,6-tetrahydropyridinecarboxylate]
4 | 4410 | O=C(NCc1cccnc1)c1ccc(C2CCCC2)nc1NCCc1cccc(F)c1 [Compound 59, (6-cyclopentyl-2-{[2-(3-fluorophenyl)ethyl]amino}(3-pyridyl))-N-(3-pyridylmethyl)carboxamide]
5 | 1820 | O=C(NCc1cccnc1)c1ccc(C2=CCC3(CC2)OCCO3)nc1NCCc1cccc(F)c1 [Compound 60, (6-(1,4-dioxaspiro[4.5]dec-7-en-8-yl)-2-{[2-(3-fluorophenyl)ethyl]amino}(3-pyridyl))-N-(3-pyridylmethyl)carboxamide]
6 | 100 | COC(=O)N1CC=C(c2ccc(C(=O)NCc3cccnc3)c(NCCc3cccc(F)c3)n2)CC1 [Compound 61, methyl 4-(6-{[2-(3-fluorophenyl)ethyl]amino}-5-[N-(3-pyridylmethyl)carbamoyl]-2-pyridyl)-1,2,5,6-tetrahydropyridinecarboxylate]
7 | 637 | O=C(NCc1cccnc1)c1ccc(C2=CCCC2)nc1NCCc1cccc(F)c1 [Compound 62, (6-cyclopent-1-enyl-2-{[2-(3-fluorophenyl)ethyl]amino}(3-pyridyl))-N-(3-pyridylmethyl)carboxamide]
8 | 671 | O=C1CC=C(c2ccc(C(=O)NCc3cccnc3)c(NCCc3cccc(F)c3)n2)CC1 [Compound 64, (2-{[2-(3-fluorophenyl)ethyl]amino}-6-(4-oxocyclohex-1-enyl)(3-pyridyl))-N-(3-pyridylmethyl)carboxamide]
9 | 4170 | O=C(NCc1cccnc1)c1ccc(C2CCCCC2)nc1NCCc1cccc(F)c1 [Compound 66, (6-cyclohexyl-2-{[2-(3-fluorophenyl)ethyl]amino}(3-pyridyl))-N-(3-pyridylmethyl)carboxamide]
10 | 117 | O=C(NCc1cccnc1)c1ccc(C2=CCCCC2)nc1NCCc1cccc(F)c1 [Compound 67, (6-cyclohex-1-enyl-2-{[2-(3-fluorophenyl)ethyl]amino}(3-pyridyl))-N-(3-pyridylmethyl)carboxamide]
11 | 452 | CN(C)C(=O)N1CC=C(c2ccc(C(=O)NCc3cccnc3)c(NCCc3cccc(F)c3)n2)CC1 [Compound 69, (6-[1-(N,N-dimethylcarbamoyl)(4-1,2,5,6-tetrahydropyridyl)]-2-{[2-(3-fluorophenyl)ethyl]amino}(3-pyridyl))-N-(3-pyridylmethyl)carboxamide]
12 | 295 | O=C(NCc1cccnc1)c1cc(Br)c(N2CCCC2)nc1NCCc1cccc(F)c1 [Compound 70, (5-bromo-2-{[2-(3-fluorophenyl)ethyl]amino}-6-pyrrolidinyl(3-pyridyl))-N-(3-pyridylmethyl)carboxamide]
13 | 4360 | CN1CC=C(c2ccc(C(=O)NCc3cccnc3)c(NCCc3cccc(F)c3)n2)CC1 [Compound 71, (2-{[2-(3-fluorophenyl)ethyl]amino}-6-(1-methyl(4-1,2,5,6-tetrahydropyridyl))(3-pyridyl))-N-(3-pyridylmethyl)carboxamide]
14 | 5770 | COC(=O)N1C=CC(c2ccc(C(=O)NCc3cccnc3)c(NCCc3cccc(F)c3)n2)CC1 (centres unmarked) [Compound 72, methyl 4-(6-{[2-(3-fluorophenyl)ethyl]amino}-5-[N-(3-pyridylmethyl)carbamoyl]-2-pyridyl)-1,4,5,6-tetrahydropyridinecarboxylate]
15 | 56400 | O=C(NCc1cccnc1)c1ccc(C2=NCCN2)nc1NCCc1cccc(F)c1 [Compound 73, (2-{[2-(3-fluorophenyl)ethyl]amino}-6-(2-imidazolin-2-yl)(3-pyridyl))-N-(3-pyridylmethyl)carboxamide]
16 | 25.9 | NCc1ncccc1CNC(=O)c1cc(F)c(N2CCCC2)nc1NCCc1cccc(F)c1 [Compound 78, N-{[2-(aminomethyl)(3-pyridyl)]methyl}(5-fluoro-2-{[2-(3-fluorophenyl)ethyl]amino}-6-pyrrolidinyl(3-pyridyl))carboxamide]
17 | 1800 | O=C(NC[C@H]1CCCN1)c1cc(F)c(N2CCCC2)nc1NCCc1cccc(F)c1 [Compound 79, N-[((2R)pyrrolidin-2-yl)methyl](5-fluoro-2-{[2-(3-fluorophenyl)ethyl]amino}-6-pyrrolidinyl(3-pyridyl))carboxamide]
18 | 6860 | CC(C)(C)OC(=O)N1CCC[C@@H]1CNC(=O)c1cc(F)c(N2CCCC2)nc1NCCc1cccc(F)c1 [Compound 80, tert-butyl (2R)-2-{[(5-fluoro-2-{[2-(3-fluorophenyl)ethyl]amino}-6-pyrrolidinyl(3-pyridyl))carbonylamino]methyl}pyrrolidinecarboxylate]
19 | 1320 | NCc1ncccc1CNC(=O)c1cc(F)c(C2CC2)nc1NCCc1cccc(F)c1 [Compound 81, N-{[2-(aminomethyl)(3-pyridyl)]methyl}(6-cyclopropyl-5-fluoro-2-{[2-(3-fluorophenyl)ethyl]amino}(3-pyridyl))carboxamide]
20 | 197 | C[C@H](CNC(=O)c1cc(F)c(N2CCCC2)nc1NCCc1cccc(F)c1)NC(=O)CN [Compound 82, N-{(1R)-2-[(5-fluoro-2-{[2-(3-fluorophenyl)ethyl]amino}-6-pyrrolidinyl(3-pyridyl))carbonylamino]-isopropyl}-2-aminoacetamide]
21 | 6400 | CS(=O)(=O)N1CC=C(c2ccc(C(=O)NCc3cccnc3)c(NCCc3cccc(F)c3)n2)CC1 [Compound 83, (2-{[2-(3-fluorophenyl)ethyl]amino}-6-[1-(methylsulfonyl)(4-1,2,5,6-tetrahydropyridyl)](3-pyridyl))-N-(3-pyridylmethyl)carboxamide]
22 | 48500 | CN(C)C(=O)N1CCN(c2ccc(C(=O)NCc3cccnc3)c(NCCc3cccc(F)c3)n2)CC1 [Compound 84, [4-(6-{[2-(3-fluorophenyl)ethyl]amino}-5-[N-(3-pyridylmethyl)carbamoyl](2-pyridyl))piperazinyl]-N,N-dimethylcarboxamide]

Row | SMILES | IC50 [nM]
23 | C[C@H](CNC(=O)c1cc(F)c(N2CCCC2)nc1NCCc1cccc(F)c1)NC(=O)CNC(=O)OC(C)(C)C [Compound 63, N-{(1R)-2-[(5-fluoro-2-{[2-(3-fluorophenyl)ethyl]amino}-6-pyrrolidinyl(3-pyridyl))carbonylamino]-isopropyl}-2-[(tert-butoxy)carbonylamino]acetamide] | 15100
24 | CC(C)(C)OC(=O)NCc1ncccc1CNC(=O)c1cc(F)c(N2CC[C@@H](F)C2)nc1NCCc1cccc(F)c1 [Compound 65, (6-((3R)-3-fluoropyrrolidinyl)-5-fluoro-2-{[2-(3-fluorophenyl)ethyl]amino}(3-pyridyl))-N-[(2-{[(tert-butoxy)carbonylamino]methyl}(3-pyridyl))methyl]carboxamide] | 8240
25 | CC(C)(C)OC(=O)NCCCN1C(=O)CC[C@@H]1CNC(=O)c1cc(F)c(N2CCCC2)nc1NCCc1cccc(F)c1 [Compound 68, N-[((2R)-1-{3-[(tert-butoxy)carbonylamino]propyl}-5-oxopyrrolidin-2-yl)methyl](5-fluoro-2-{[2-(3-fluorophenyl)ethyl]amino}-6-pyrrolidinyl(3-pyridyl))carboxamide] | 3320
26 | CC(C)(C)OC(=O)NCC(=O)N1CCC[C@@H]1CNC(=O)c1cc(F)c(N2CCCC2)nc1NCCc1cccc(F)c1 [Compound 77, N-[((2R)-1-{2-[(tert-butoxy)carbonylamino]acetyl}pyrrolidin-2-yl)methyl](5-fluoro-2-{[2-(3-fluorophenyl)ethyl]amino}-6-pyrrolidinyl(3-pyridyl))carboxamide] | 13600
